Results as given in the NIST ThermoML archive (doi:10.1021/je900188m).

Experiments:
[1] = 101 kPa, Liquid; for viscosity: Capillary tube (Ostwald / Ubbelohde) method; for mass density: Vibrating tube method
[2] = xn = mol fraction of the nth substance listed; details: 101 kPa, Liquid; for viscosity: Capillary tube (Ostwald / Ubbelohde) method; for mass density: Vibrating tube method

NCCO [2-aminoethan-1-ol]
[1]
Details	mass density [kg/m3]	viscosity [mPa·s]
298.15 K	1012	19.9
313.15 K	1000	9.61
323.15 K	992	6.72
343.15 K	976	3.69
353.15 K	968	2.85

NCCO [2-aminoethan-1-ol] + O
[2]
Details	mass density, 298.15 K [kg/m3]	mass density, 313.15 K [kg/m3]	mass density, 323.15 K [kg/m3]	mass density, 343.15 K [kg/m3]	mass density, 353.15 K [kg/m3]	viscosity, 298.15 K [mPa·s]	viscosity, 313.15 K [mPa·s]	viscosity, 323.15 K [mPa·s]	viscosity, 343.15 K [mPa·s]	viscosity, 353.15 K [mPa·s]
x1 = 0.06867	1005	999	994	983	977	1.7	1.18	0.95	0.67	0.58
x1 = 0.1122	1011	1003	998	986	979	2.48	1.67	1.33	0.92	0.77
x1 = 0.1643	1016	1008	1002	989	982	3.58	2.28	1.75	1.14	0.95
x1 = 0.2278	1021	1012	1005	992	984	5.51	3.39	2.54	1.57	1.28
x1 = 0.4076	1026	1016	1008	993	985	12.46	6.96	4.94	2.79	2.18
x1 = 0.7264	1020	1008	1001	985	976	19.4	10.2	7.06	3.81	2.93
